Measurements from PubChem BioAssay (NCI).
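Here, GI50 denotes the concentration required for 50% inhibition of growth. TGI marks complete inhibition of growth.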

Legend:
Assay in all cases: NCI-60 cell line screen, 384-well format
HOP-92 NSCLC = system: HOP-92 NSCLC
TK-10 renal = system: TK-10 renal
MOLT-4 leukemia = system: MOLT-4 leukemia
SW-620 colon = system: SW-620 colon
U251 glioblastoma = system: U251 glioblastoma
786-0 renal = system: 786-0 renal
CAKI-1 renal = system: CAKI-1 renal
MDA-MB-435 melanoma = system: MDA-MB-435 melanoma
UACC-257 melanoma = system: UACC-257 melanoma
NCI-H23 lung = system: NCI-H23 lung
OVCAR-4 ovarian = system: OVCAR-4 ovarian
EKVX NSCLC = system: EKVX NSCLC
SK-MEL-5 melanoma = system: SK-MEL-5 melanoma
HOP-62 NSCLC = system: HOP-62 NSCLC
PC-3 prostate = system: PC-3 prostate
CCRF-CEM leukemia = system: CCRF-CEM leukemia
DU-145 prostate = system: DU-145 prostate
NCI/ADR-RES ovarian = system: NCI/ADR-RES ovarian
ACHN renal = system: ACHN renal
UACC-62 melanoma = system: UACC-62 melanoma
UO-31 renal = system: UO-31 renal
A549 NSCLC = system: A549 NSCLC
K-562 leukemia = system: K-562 leukemia
MDA-MB-468 breast = system: MDA-MB-468 breast
T-47D breast = system: T-47D breast
IGROV1 ovarian = system: IGROV1 ovarian
OVCAR-5 ovarian = system: OVCAR-5 ovarian
A498 renal = system: A498 renal
SF-295 CNS = system: SF-295 CNS

CN(C[C@@H]1COCCO1)S(=O)(=O)Nc1ccc2ccc3ncc(-c4cnn(C)c4)cc3c(=O)c2c1
GI50 (HOP-92 NSCLC): 2.08 µM | TGI (HOP-92 NSCLC): 10.8 µM | GI50 (TK-10 renal): 8.38 µM | TGI (TK-10 renal): > 100 µM | GI50 (MOLT-4 leukemia): 1.58 µM | TGI (MOLT-4 leukemia): 3.03 µM | GI50 (SW-620 colon): 7.12 µM | TGI (SW-620 colon): > 100 µM | GI50 (U251 glioblastoma): 6.34 µM | TGI (U251 glioblastoma): > 100 µM | GI50 ([…]-0 renal): 5.58 µM | TGI (786-0 renal): > 100 µM | GI50 (CAKI-1 renal): 1.89 µM | TGI (CAKI-1 renal): > 100 µM | GI50 (MDA-MB-435 melanoma): 21.6 µM | TGI (MDA-MB-435 melanoma): > 100 µM | GI50 (UACC-257 melanoma): > 100 µM | TGI (UACC-257 melanoma): > 100 µM | GI50 (NCI-H23 lung): 0.588 µM | TGI (NCI-H23 lung): 5.43 µM | GI50 (OVCAR-4 ovarian): 3.34 µM | TGI (OVCAR-4 ovarian): 61 µM | GI50 (EKVX NSCLC): 16.2 µM | TGI (EKVX NSCLC): > 100 µM | GI50 (SK-MEL-5 melanoma): 2.61 µM | TGI (SK-MEL-5 melanoma): 19.2 µM | GI50 (HOP-62 NSCLC): 5.14 µM | TGI (HOP-62 NSCLC): > 100 µM | GI50 (PC-3 prostate): 5.71 µM | TGI (PC-3 prostate): > 100 µM | GI50 (CCRF-CEM leukemia): 3.12 µM | TGI (CCRF-CEM leukemia): 9.46 µM | GI50 (DU-145 prostate): 5.46 µM | TGI (DU-145 prostate): > 100 µM | GI50 (NCI/ADR-RES ovarian): 3.56 µM | TGI (NCI/ADR-RES ovarian): 25.5 µM | GI50 (ACHN renal): 2.56 µM | TGI (ACHN renal): > 100 µM | GI50 (UACC-62 melanoma): 3.36 µM | TGI (UACC-62 melanoma): > 100 µM | GI50 (UO-31 renal): 8.88 µM | TGI (UO-31 renal): > 100 µM | GI50 (A549 NSCLC): 8.08 µM | TGI (A549 NSCLC): > 100 µM | GI50 (K-562 leukemia): 6.92 µM | TGI (K-562 leukemia): > 100 µM | GI50 (MDA-MB-468 breast): 1.63 µM | TGI (MDA-MB-468 breast): 5.2 µM | GI50 (T-47D breast): 3.5 µM | TGI (T-47D breast): 59.5 µM | GI50 (IGROV1 ovarian): 2.13 µM | TGI (IGROV1 ovarian): 9 µM | GI50 (OVCAR-5 ovarian): 24 µM | TGI (OVCAR-5 ovarian): > 100 µM | GI50 (A498 renal): 0.808 µM | TGI (A498 renal): 62.5 µM | GI50 (SF-295 CNS): 1.12 µM | TGI (SF-295 CNS): 10.9 µM
